As usually defined, the ED50 is the dose that gives a 50% effect, or the effect in half of the subjects. Low readings indicate greater potency, high ones weaker potency.

This assay relates to stereotyped gnawing behaviour in mice induced by methylphenidate. As to the kind of experiment: methylphenidate induced gnawing test in mice. The format is in vivo. The following applies: Mus musculus.

Compound `COCOc1cc2c(cc1Cl)CCN(C)CC2c1cccc2ccoc12` (single isomer, unassigned; (+)) [Example 1, (+)-5-(7-benzofuranyl)-8-chloro-7-methoxymethyloxy-3-methyl-2,3,4,5-tetrahydro-1H-3-benzazepine] returned an ED50 of 2 mg/kg. The compound `COCOc1cc2c(cc1Cl)CCN(C)CC2c1cccc2c1OCC2` (single isomer, unassigned; (+)) [Example 2, (+)-8-chloro-5-(2,3-dihydro-benzofuran-7-yl)-7-methoxy-methyloxy-3-methyl-2,3,4,5-tetrahydro-1H-3-benzazepine] displayed an ED50 of 5.4 mg/kg.

(Values after US5079243A, “Benzazepines” (Novo Nordisk A/S, priority 1989, dated 1992).)
